Blank lines part the entries; values can stand above or below the molecule they belong to.
Assays:
[1] = biological target: T1, Elastase (Homo sapiens, UniProt P08246); assay: In vitro assay of elastase in the presence of the prodrug and porcine liver esterase; type: biochemical
T1 construct: Elastase is isolated from human sputum; from tissue; host or cells: human sputum
T1 sequence (P08246 30-267): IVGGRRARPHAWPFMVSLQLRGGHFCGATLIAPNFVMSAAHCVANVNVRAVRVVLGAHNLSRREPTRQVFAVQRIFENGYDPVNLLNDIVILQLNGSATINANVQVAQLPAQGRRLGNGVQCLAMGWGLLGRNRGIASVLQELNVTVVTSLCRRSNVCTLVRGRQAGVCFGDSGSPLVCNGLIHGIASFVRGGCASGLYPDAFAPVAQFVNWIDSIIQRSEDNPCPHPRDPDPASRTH
Procedure: (§1) Elastase was assayed in vitro using the chromogenic substrate N-MeOSuc-Ala-Ala-Pro-Val-p-nitroanilide ([S]=0.20 mM; Km=0.16 mM), available commercially. The assay techniques are similar to those described by Mehdi, et al., Biochemical and Biophysical Research Communications, 166, 595 (1990). The assay mixture consists of partially purified elastase and substrate (0.2 mM) in 0.1 M HEPES (pH 7.5), 0.5 M NaCl, 10% DMSO and 0.1% Brij 35. The reaction (1 or 2 mL, in a plastic cuvette) is maintained at 37° C. and the hydrolysis of the substrate is followed in the presence of MDL 104,569 and 5 units/mL of porcine liver esterase (Sigma Chemical Co., cat. no. E-3128). Elastase is isolated from human sputum, although recently it has become commercially available. The rate of hydrolysis of the substrate with no inhibitor or prodrug added is assigned 100%. In the presence of 1 μM MDL 104,569, a rate of 81% was obtained; when esterase ([…], Sigma Chemical Co.) was also present, the rate decreased to 24%.
(§2) Elastase was assayed in vitro in the presence of MDL 105,565 using the techniques and procedures described in Example 18. With MDL 105,565, at a concentration of 10 nM, a rate of 99% was obtained; when esterase was added, this rate was 76%. At a concentration of 45 nM, the rates were 94% (without esterase) and 37% (with esterase).

[2] = biological target: T1, Elastase; assay: In vitro assay of elastase with chromogenic substrate N-MeOSuc-Ala-Ala-Pro-Val-p-nitroanilide, no esterase; type: biochemical; conditions: for rate of hydrolysis of the substrate (no inhibitor or prodrug added = 100%): without esterase; for Ki: parent (liberated) drug itself, read-out: Ki measured / determined independently
Procedure: as §1, §2

rate of hydrolysis of the substrate (no inhibitor or prodrug added = 100%) ([1]; 10 nM compound, esterase added): 76% | rate of hydrolysis of the substrate (no inhibitor or prodrug added = 100%) ([1]; 45 nM compound, with esterase): 37% | rate of hydrolysis of the substrate (no inhibitor or prodrug added = 100%) ([2]; 10 nM compound): 99% | rate of hydrolysis of the substrate (no inhibitor or prodrug added = 100%) ([2]; 45 nM compound): 94%
Compound: COC(=O)/C(OC(C)=O)=C(\NC(=O)[C@@H]1CCCN1C(=O)[C@@H](NC(=O)c1ccc(C(=O)NS(=O)(=O)c2ccc(Cl)cc2)cc1)C(C)C)C(C)C [MDL 105,565, L-Prolinamide, N-[4-[[[(4-chlorophenyl)sulfonyl]amino]carbonyl]benzoyl]-L-valyl-N-[2-(acetyloxy)-3-methoxy-1-(1-methylethyl)-3-oxo-1-propenyl]-, (E)]

Ki ([1]; drug liberated from MDL 105,565 by esterase in the assay, read-out: Ki of the liberated drug, calculated): 13 nM | Ki [2]: 2 nM
Compound: COC(=O)C(=O)C(NC(=O)C1CCCN1C(=O)C(NC(=O)c1ccc(C(=O)NS(=O)(=O)c2ccc(Cl)cc2)cc1)C(C)C)C(C)C (stereo not drawn) [liberated drug, reference compound]

rate of hydrolysis of the substrate (no inhibitor or prodrug added = 100%) ([1]; 1 μM compound, esterase also present): 24% | rate of hydrolysis of the substrate (no inhibitor or prodrug added = 100%) ([2]; 1 μM compound, substrate 0.2 mM, pH 7.5, 37° C.): 81%
Compound: COC(=O)CCC(=O)N[C@@H](C)C(=O)N[C@@H](C)C(=O)N1CCC[C@H]1C(=O)NC(=C(OC(C)=O)C(=O)OC)C(C)C (mixture of isomers) [MDL 104,569, L-Prolinamide, N-(4-methoxy-1,4-dioxobutyl)-L-alanyl-L-alanyl-N-[2-(acetyloxy)-3-methoxy-1-(1-methylethyl)-3-oxo-1-propenyl]-, (E)- and (Z)-mixture]

Ki [2]: 200 nM
Compound: COC(=O)CCC(=O)NC(C)C(=O)NC(C)C(=O)N1CCCC1C(=O)NC(C(=O)C(=O)OC)C(C)C (stereo not drawn) [parent drug, MeOSuc-Ala-Ala-Pro-Val-CO2 CH3, reference compound]
